Key:
Mer tyrosine kinase = Mer tyrosine kinase (Homo sapiens (Human), UniProt Q12866); assay: Evaluation of activity against Mer tyrosine kinase; type: biochemical
Tyro3 tyrosine kinase = Tyro3 tyrosine kinase (Homo sapiens (Human), UniProt Q06418); assay: Evaluation of activity against Tyro3 tyrosine kinase; type: biochemical
Sequence of Tyro3 tyrosine kinase (Q06418 41-890): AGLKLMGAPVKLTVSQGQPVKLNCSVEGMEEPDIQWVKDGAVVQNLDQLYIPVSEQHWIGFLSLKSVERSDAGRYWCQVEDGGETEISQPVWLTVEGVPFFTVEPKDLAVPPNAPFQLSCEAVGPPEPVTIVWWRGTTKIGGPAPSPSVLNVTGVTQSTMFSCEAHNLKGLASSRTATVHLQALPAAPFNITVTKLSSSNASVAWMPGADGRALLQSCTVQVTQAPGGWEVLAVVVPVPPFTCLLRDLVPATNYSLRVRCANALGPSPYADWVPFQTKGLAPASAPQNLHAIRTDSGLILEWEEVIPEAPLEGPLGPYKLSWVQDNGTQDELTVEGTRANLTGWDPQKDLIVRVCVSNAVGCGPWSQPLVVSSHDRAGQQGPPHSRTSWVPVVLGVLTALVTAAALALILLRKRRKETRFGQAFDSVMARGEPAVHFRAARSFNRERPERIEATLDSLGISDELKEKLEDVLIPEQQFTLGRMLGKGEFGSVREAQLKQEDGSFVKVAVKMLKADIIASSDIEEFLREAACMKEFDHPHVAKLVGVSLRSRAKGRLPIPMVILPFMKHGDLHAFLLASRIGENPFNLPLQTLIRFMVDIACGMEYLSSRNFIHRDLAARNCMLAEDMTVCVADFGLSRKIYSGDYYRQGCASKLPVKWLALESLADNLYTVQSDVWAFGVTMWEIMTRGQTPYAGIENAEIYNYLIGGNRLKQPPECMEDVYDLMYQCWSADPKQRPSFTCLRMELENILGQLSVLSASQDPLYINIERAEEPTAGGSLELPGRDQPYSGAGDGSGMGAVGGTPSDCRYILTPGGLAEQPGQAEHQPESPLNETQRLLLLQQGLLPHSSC

Sequence of Mer tyrosine kinase (Q12866 21-999): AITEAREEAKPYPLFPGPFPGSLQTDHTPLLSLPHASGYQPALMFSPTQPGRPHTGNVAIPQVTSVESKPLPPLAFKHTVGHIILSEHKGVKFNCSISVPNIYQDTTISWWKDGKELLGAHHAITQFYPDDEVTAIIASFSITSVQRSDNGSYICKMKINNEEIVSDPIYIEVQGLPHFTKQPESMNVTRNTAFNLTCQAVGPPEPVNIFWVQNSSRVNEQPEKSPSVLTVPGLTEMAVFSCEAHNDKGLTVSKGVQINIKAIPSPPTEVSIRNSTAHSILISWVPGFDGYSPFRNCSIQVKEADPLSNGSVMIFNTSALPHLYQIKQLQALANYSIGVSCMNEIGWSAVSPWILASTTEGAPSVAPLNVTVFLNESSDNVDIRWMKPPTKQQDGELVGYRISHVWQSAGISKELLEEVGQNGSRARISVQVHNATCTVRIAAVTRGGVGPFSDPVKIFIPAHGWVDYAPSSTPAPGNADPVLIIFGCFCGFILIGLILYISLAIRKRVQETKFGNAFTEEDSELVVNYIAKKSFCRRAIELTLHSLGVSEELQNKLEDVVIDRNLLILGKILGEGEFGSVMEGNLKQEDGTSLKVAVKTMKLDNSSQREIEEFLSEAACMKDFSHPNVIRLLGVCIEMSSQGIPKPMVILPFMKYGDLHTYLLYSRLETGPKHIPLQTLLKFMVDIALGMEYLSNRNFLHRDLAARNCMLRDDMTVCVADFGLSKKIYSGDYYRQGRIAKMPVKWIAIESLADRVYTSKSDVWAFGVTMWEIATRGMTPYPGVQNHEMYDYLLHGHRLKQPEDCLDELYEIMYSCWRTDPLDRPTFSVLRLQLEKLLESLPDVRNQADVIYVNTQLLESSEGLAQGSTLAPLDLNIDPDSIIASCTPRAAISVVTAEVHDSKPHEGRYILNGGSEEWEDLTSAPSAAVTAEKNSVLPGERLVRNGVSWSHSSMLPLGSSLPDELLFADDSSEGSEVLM

SMILES	IC50 (Mer tyrosine kinase) [nM]	IC50 (Tyro3 tyrosine kinase) [nM]
CCC[C@H](C)Nc1ncc2c(C3CCN(C(=O)c4cc(F)cc(F)c4)CC3)cn([C@H]3CC[C@H](O)CC3)c2n1 [compound 81, (3,5-difluorophenyl)(4-(7-((1R,4S)-4-hydroxycyclohexyl)-2-(((S)-pentan-2-yl)amino)-7H-pyrrolo[2,3-d]pyrimidin-5-yl)piperidin-1-yl)methanone]	< 10	100 to 1000
CCC[C@H](C)Nc1ncc2c(C3CCN(C(=O)c4cc(C)nc(C)c4)CC3)cn([C@H]3CC[C@H](CO)CC3)c2n1 [compound 86]	< 10	10 to 100
CCC[C@H](C)Nc1ncc2c(C3CCN(C(=O)[C@H]4CCCCN4)CC3)cn([C@H]3CC[C@H](O)CC3)c2n1 [compound 20, (4-(7-((1R,4S)-4-hydroxycyclohexyl)-2-(((S)-pentan-2-yl)amino)-7H-pyrrolo[2,3-d]pyrimidin-5-yl)piperidin-1-yl)((R)-piperidin-2-yl)methanone]	< 10	100 to 1000
CCC[C@H](C)Nc1ncc2c(C3CCN(C(=O)c4cncs4)CC3)cn([C@H]3CC[C@H](O)CC3)c2n1 [compound 59, (4-(7-((1R,4S)-4-hydroxycyclohexyl)-2-(((S)-pentan-2-yl)amino)-7H-pyrrolo[2,3-d]pyrimidin-5-yl)piperidin-1-yl)(thiazol-5-yl)methanone]	< 10	10 to 100
CCC[C@H](C)Nc1ncc2c(C3CCN(C(=O)c4cc[nH]c4)CC3)cn([C@H]3CC[C@H](O)CC3)c2n1 [compound 61, (4-(7-((1R,4S)-4-hydroxycyclohexyl)-2-(((S)-pentan-2-yl)amino)-7H-pyrrolo[2,3-d]pyrimidin-5-yl)piperidin-1-yl)(1H-pyrrol-3-yl)methanone]	< 10	100 to 1000
CCC[C@H](C)Nc1ncc2c(C3CCN(C(=O)c4nccs4)CC3)cn([C@H]3CC[C@H](O)CC3)c2n1 [compound 57, (4-(7-((1R,4S)-4-hydroxycyclohexyl)-2-(((S)-pentan-2-yl)amino)-7H-pyrrolo[2,3-d]pyrimidin-5-yl)piperidin-1-yl)(thiazol-2-yl)methanone]	< 10	100 to 1000
CCC[C@H](C)Nc1ncc2c(C3CCN(C)C3)cn([C@H]3CC[C@H](O)CC3)c2n1 (stereo partly drawn) [compound 99, (1S,4R)-4-(5-(1-methylpyrrolidin-3-yl)-2-(((S)-pentan-2-yl)amino)-7H-pyrrolo[2,3-d]pyrimidin-7-yl)cyclohexan-1-ol]	< 10	100 to 1000
CCC[C@H](C)Nc1ncc2c(C3CCN(C(=O)[C@@H]4CCCCN4)CC3)cn([C@H]3CC[C@H](O)CC3)c2n1 [compound 19, (4-(7-((1R,4S)-4-hydroxycyclohexyl)-2-(((S)-pentan-2-yl)amino)-7H-pyrrolo[2,3-d]pyrimidin-5-yl)piperidin-1-yl)((S)-piperidin-2-yl)methanone]	< 10	10 to 100
CCC(CC)CNc1ncc2c(C3CCN(C(=O)c4cc(C)nc(C)c4)CC3)cn([C@H]3CC[C@H](O)CC3)c2n1 [compound 69, (2,6-dimethylpyridin-4-yl)(4-(2-((2-ethylbutyl)amino)-7-((1r,4r)-4-hydroxycyclohexyl)-7H-pyrrolo[2,3-d]pyrimidin-5-yl)piperidin-1-yl)methanone]	< 10	10 to 100
CCC[C@H](C)Nc1ncc2c(C3CCN(C(=O)C4CCCN4)CC3)cn([C@H]3CC[C@H](O)CC3)c2n1 (stereo partly drawn) [compound 15, 7-((1R,4S)-4-hydroxycyclohexyl)-2-(((S)-pentan-2-yl)amino)-5-(1-prolylpiperidin-4-yl)-7H-pyrrolo[2,3-d]pyrimidine]	< 10	10 to 100
CCCCNc1ncc2c(C3CC4CCC(C3)N4)cn([C@H]3CC[C@H](O)CC3)c2n1 (stereo partly drawn) [compound 12, (1R,4R)-4-(5-((1R,3S,5S)-8-azabicyclo[3.2.1]octan-3-yl)-2-(butylamino)-7H-pyrrolo[2,3-d]pyrimidin-7-yl)cyclohexan-1-ol]		1000 to 30000
CCC[C@H](C)Nc1ncc2c(C3CCN(CC4CCN(C)CC4)CC3)cn([C@H]3CC[C@H](O)CC3)c2n1 [compound 54, (1S,4R)-4-(5-(1-((1-methylpiperidin-4-yl)methyl)piperidin-4-yl)-2-(((S)-pentan-2-yl)amino)-7H-pyrrolo[2,3-d]pyrimidin-7-yl)cyclohexan-1-ol]	< 10	10 to 100
CCC[C@H](C)Nc1ncc2c(C3CCN(C(=O)C4CCNCC4)CC3)cn([C@H]3CC[C@H](O)CC3)c2n1 [compound 8, (4-(7-((1R,4S)-4-hydroxycyclohexyl)-2-(((S)-pentan-2-yl)amino)-7H-pyrrolo[2,3-d]pyrimidin-5-yl)piperidin-1-yl)(piperidin-4-yl)methanone]	< 10	10 to 100
CCC[C@H](C)Nc1ncc2c(C3CCN(C(=O)c4ccc(N)cc4)CC3)cn([C@H]3CC[C@H](O)CC3)c2n1 [compound 82, (4-aminophenyl)(4-(7-((1R,4S)-4-hydroxycyclohexyl)-2-(((S)-pentan-2-yl)amino)-7H-pyrrolo[2,3-d]pyrimidin-5-yl)piperidin-1-yl)methanone]	< 10	100 to 1000
CCC[C@H](C)Nc1ncc2c(C3CCN(C(=O)c4cccc(OC)c4)CC3)cn([C@H]3CC[C@H](O)CC3)c2n1 [compound 32, (4-(7-((1R,4S)-4-hydroxycyclohexyl)-2-(((S)-pentan-2-yl)amino)-7H-pyrrolo[2,3-d]pyrimidin-5-yl)piperidin-1-yl)(3-methoxyphenyl)methanone]	< 10	100 to 1000
CCC[C@H](C)Nc1ncc2c(C3CCN(S(=O)(=O)C4CCN(C)CC4)CC3)cn([C@H]3CC[C@H](O)CC3)c2n1 [compound 1, (1S,4R)-4-(5-(1-((1-methylpiperidin-4-yl)sulfonyl)piperidin-4-yl)-2-(((S)-pentan-2-yl)amino)-7H-pyrrolo[2,3-d]pyrimidin-7-yl)cyclohexan-1-ol]	< 10	10 to 100
CCC[C@H](C)Nc1ncc2c(C3CCN(C(=O)CCOC)CC3)cn([C@H]3CC[C@H](O)CC3)c2n1 [compound 9, 1-(4-(7-((1R,4S)-4-hydroxycyclohexyl)-2-(((S)-pentan-2-yl)amino)-7H-pyrrolo[2,3-d]pyrimidin-5-yl)piperidin-1-yl)-3-methoxypropan-1-one]	< 10	100 to 1000
CCC[C@H](C)Nc1ncc2c(C3CCN(C(=O)c4ccc(NC)cc4)CC3)cn([C@H]3CC[C@H](O)CC3)c2n1 [compound 83, (4-(7-((1R,4S)-4-hydroxycyclohexyl)-2-(((S)-pentan-2-yl)amino)-7H-pyrrolo[2,3-d]pyrimidin-5-yl)piperidin-1-yl)(4-(methylamino)phenyl)methanone]	< 10	10 to 100
CC[C@@H]1C[C@H]1Nc1ncc2c(C3CCN(C(=O)c4ccncc4)CC3)cn([C@H]3CC[C@H](O)CC3)c2n1 [compound 43, (4-(2-(((1R,2R)-2-ethylcyclopropyl)amino)-7-((1R,4R)-4-hydroxycyclohexyl)-7H-pyrrolo[2,3-d]pyrimidin-5-yl)piperidin-1-yl)(pyridin-4-yl)methanone]	< 10	100 to 1000
CCC[C@H](C)Nc1ncc2c(C3CCN(C(=O)c4ccc(OC)cc4)CC3)cn([C@H]3CC[C@H](O)CC3)c2n1 [compound 31, (4-(7-((1R,4S)-4-hydroxycyclohexyl)-2-(((S)-pentan-2-yl)amino)-7H-pyrrolo[2,3-d]pyrimidin-5-yl)piperidin-1-yl)(4-methoxyphenyl)methanone]	< 10	100 to 1000
CCC[C@H](C)Nc1ncc2c(C3CCN(C(=O)C4CN(C)C4)CC3)cn([C@H]3CC[C@H](O)CC3)c2n1 [compound 14, (4-(7-((1R,4S)-4-hydroxycyclohexyl)-2-(((S)-pentan-2-yl)amino)-7H-pyrrolo[2,3-d]pyrimidin-5-yl)piperidin-1-yl)(1-methylazetidin-3-yl)methanone]	< 10	10 to 100
CCC[C@H](C)Nc1ncc2c(C3CCN(C(=O)c4ccc(CNC)cc4)CC3)cn([C@H]3CC[C@H](O)CC3)c2n1 [compound 85, (4-(7-((1R,4S)-4-hydroxycyclohexyl)-2-(((S)-pentan-2-yl)amino)-7H-pyrrolo[2,3-d]pyrimidin-5-yl)piperidin-1-yl)(4-((methylamino)methyl)phenyl)methanone]	< 10	10 to 100
CCC[C@H](C)Nc1ncc2c(C3CCN(C(=O)C4CCN(CCF)CC4)CC3)cn([C@H]3CC[C@H](O)CC3)c2n1 [compound 36, (1-(2-fluoroethyl)piperidin-4-yl)(4-(7-((1R,4S)-4-hydroxycyclohexyl)-2-(((S)-pentan-2-yl)amino)-7H-pyrrolo[2,3-d]pyrimidin-5-yl)piperidin-1-yl)methanone]	< 10	10 to 100
C[C@H](Nc1ncc2c(C3CCN(CC4CCCCC4)CC3)cn([C@H]3CC[C@H](O)CC3)c2n1)c1ccccc1 [compound 92, (1S,4R)-4-(5-(1-(cyclohexylmethyl)piperidin-4-yl)-2-(((S)-1-phenylethyl)amino)-7H-pyrrolo[2,3-d]pyrimidin-7-yl)cyclohexan-1-ol]	< 10	100 to 1000
CCC[C@H](C)Nc1ncc2c(C3CCN(C(=O)c4ccccc4OC)CC3)cn([C@H]3CC[C@H](O)CC3)c2n1 [compound 33, (4-(7-((1R,4S)-4-hydroxycyclohexyl)-2-(((S)-pentan-2-yl)amino)-7H-pyrrolo[2,3-d]pyrimidin-5-yl)piperidin-1-yl)(2-methoxyphenyl)methanone]	< 10	100 to 1000
CCC[C@H](C)Nc1ncc2c(C3CCN(C(=O)c4cc(C)nc(C)c4)CC3)cn(C[C@H]3CC[C@H](N)CC3)c2n1 [compound 102, (4-(7-(((1R,4S)-4-aminocyclohexyl)methyl)-2-(((S)-pentan-2-yl)amino)-7H-pyrrolo[2,3-d]pyrimidin-5-yl)piperidin-1-yl)(2,6-dimethylpyridin-4-yl)methanone]	< 10	100 to 1000
CCC[C@H](C)Nc1ncc2c(C3CCN(C(=O)c4ncc[nH]4)CC3)cn([C@H]3CC[C@H](O)CC3)c2n1 [compound 62, (4-(7-((1r,4S)-4-hydroxycyclohexyl)-2-(((S)-pentan-2-yl)amino)-7H-pyrrolo[2,3-d]pyrimidin-5-yl)piperidin-1-yl)(1H-imidazol-2-yl)methanone]	< 10	100 to 1000
